The target of series [1] is T1, estrogen receptor (ER) (Bos taurus, UniProt P49884).
T1 construct: uterine cytosol was prepared by homogenizing calf uteri; from tissue; host or cells: calf uterus, cytosol (105,000 g supernatant)
T1 sequence (P49884 1-596): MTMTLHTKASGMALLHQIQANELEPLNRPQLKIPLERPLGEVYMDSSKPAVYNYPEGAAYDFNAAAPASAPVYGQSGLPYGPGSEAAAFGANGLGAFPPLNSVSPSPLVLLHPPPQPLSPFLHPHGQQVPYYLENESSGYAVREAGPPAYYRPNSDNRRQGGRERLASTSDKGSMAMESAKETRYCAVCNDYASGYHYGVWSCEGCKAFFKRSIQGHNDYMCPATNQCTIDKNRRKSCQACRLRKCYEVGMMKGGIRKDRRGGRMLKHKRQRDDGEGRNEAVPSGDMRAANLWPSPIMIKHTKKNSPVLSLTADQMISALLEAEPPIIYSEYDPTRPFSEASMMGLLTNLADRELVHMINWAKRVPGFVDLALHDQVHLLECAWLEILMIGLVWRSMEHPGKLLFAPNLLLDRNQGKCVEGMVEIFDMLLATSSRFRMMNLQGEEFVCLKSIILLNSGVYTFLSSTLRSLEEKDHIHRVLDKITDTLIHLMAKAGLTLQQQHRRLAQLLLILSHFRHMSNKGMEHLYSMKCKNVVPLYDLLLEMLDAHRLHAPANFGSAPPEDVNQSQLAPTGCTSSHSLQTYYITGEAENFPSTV
In kind it is binding, calf.

For series [2], the system named is MCF-7 and MDA-MB-231 cells. Kind of series: Methylene blue dye binding growth assay in breast tumor cell lines. In kind it is cell-based, human. Conditions: ED50 = concentration that inhibits cell growth by 50%. As to the method:
The toxicities of the preferred 2-phenylindole-C6NC2-mustard and homologous ligand decoy compounds for selected cells distinguished phenotypically from nonselected cells by expression of ER were tested using the human breast tumor cell lines, MCF-7 and MDA-MB-231, according to the guidelines set forth in Example 10 (above). The MCF-7 cell line expresses the estrogen receptor protein, while no ER protein can be detected in the MDA-MB-231 cell line.
Both cell lines were routinely cultured in Minimal Essential Medium (MEM) supplemented with 2 mM gluatamine, 1 mM sodium pyruvate and 10% fetal calf serum. To determine the toxicity of test compounds, cells were trypsinized and plated in 100 μl of media in 96-well microtiter plates at the following densities: MCF-7, 2000 cells/well; MDA-MB-231, 1000 cells/well. Cells were allowed to grow for 24 hours in the 96-well plates prior to treatment with the compounds. […]
Each treatment condition was conducted in replicates of 8 wells. […] On day 4, cell growth in treated and control cultures was determined using the methylene blue dye binding assay.
A dye-binding assay as described by Finlay et al. (1984), 139 Anal. Biochem. 272 was used to assess the cytotoxic effects of 2-phenylindole-C6NC2-mustard and homologous ligand decoy compounds. […] The absorbance of the solubilized dye was read at 620 nm in a Ceres 9000 plate reader (Biotek).

The test system of series [3] is HeLa 36 (ER+) and HeLa 7 (ER-) cells. Kind of series: Methylene blue dye binding toxicity assay in HeLa ER transformants.
Series [4] deals with T1, estrogen receptor (ER). Kind of series: In vitro [3H]E2 competition assay, calf uterine extracts, free compounds. The series is classed as binding. Conditions: free compound.
Experimental: Assays were performed by premixing a range of concentrations of the test compound with a fixed amount of tritium labeled estradiol ([^3H]E2). Calf uterine cytosol was then added. After incubation overnight at 4° C., activated charcoal/dextran was added to remove unbound [^3H]E2. Following centrifugation to remove the charcoal/dextran, levels of bound (i.e., non-competed) [^3H]E2 were determined by liquid scintillation spectrometry. Low concentrations of test compound required to abolish [^3H]E2 binding in this assay indicate a tight association between the test compound and the ER.
Another series has as its target T2, hUBF (Homo sapiens, UniProt P17480).
T2 construct: made in house; host or cells: in vitro transcription and translation (cell-free) from plasmid pTbGUBF1
T2 sequence (P17480 1-764): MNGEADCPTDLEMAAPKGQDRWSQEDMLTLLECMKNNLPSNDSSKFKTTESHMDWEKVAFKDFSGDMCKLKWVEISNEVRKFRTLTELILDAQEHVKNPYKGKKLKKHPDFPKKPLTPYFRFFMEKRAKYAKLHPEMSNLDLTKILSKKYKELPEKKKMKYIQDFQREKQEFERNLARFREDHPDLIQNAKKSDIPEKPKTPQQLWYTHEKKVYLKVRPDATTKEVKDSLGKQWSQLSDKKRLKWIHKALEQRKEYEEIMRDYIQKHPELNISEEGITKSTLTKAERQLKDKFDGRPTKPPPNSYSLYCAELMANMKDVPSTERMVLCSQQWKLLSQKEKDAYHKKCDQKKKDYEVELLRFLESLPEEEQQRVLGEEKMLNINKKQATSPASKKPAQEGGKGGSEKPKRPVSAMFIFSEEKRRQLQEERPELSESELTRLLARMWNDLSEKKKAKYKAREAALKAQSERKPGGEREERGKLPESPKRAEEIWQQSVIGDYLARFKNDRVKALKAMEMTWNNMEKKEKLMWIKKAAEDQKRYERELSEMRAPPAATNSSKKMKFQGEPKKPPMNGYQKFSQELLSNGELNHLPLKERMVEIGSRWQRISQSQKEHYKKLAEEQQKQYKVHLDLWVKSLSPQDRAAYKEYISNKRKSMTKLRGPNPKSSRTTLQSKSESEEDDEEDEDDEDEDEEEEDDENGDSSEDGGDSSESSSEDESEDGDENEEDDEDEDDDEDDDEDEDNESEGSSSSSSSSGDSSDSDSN
Kind of series: Southwestern blotting of hUBF with platinated DNA probes. The series is classed as binding. Conditions: southwestern and western blot; DNA globally modified by the platinum compound. As to the method: Probe Preparation. The DNA probe used for southwestern blotting was a 422 base pair (bp) AvaI restriction fragment excised from M13mp19 replicative form DNA. Platinated probes were prepared by treating the AvaI-digested DNA with cisplatin or trans-DDP, and the formal bound drug/nucleotide ratios (rb) were determined by using atomic absorption spectroscopy as described in Donahue et al. (1990), 29 Biochemistry 5872-5880.
Western and Southwestern Blotting Technique. HeLa whole cell extracts (WCE) were prepared by the sonication procedure of Samson et al. (1986), 83 Proc. Natl. Acad. Sci. U.S.A. 5607-5610. The 97 kDa hUBF species was synthesized by in vitro transcription and translation from the plasmid pTbGUBF1 as reported in Jantzen et al. (1992), 6 Genes & Dev. 1950-1963. In vitro translated hUBF was quantitated by the incorporation of ^35S-methionine. Protein samples ([…] WCE or 8 ng hUBF) were resolved on 5-15% gradient SDS polyacrylamide gels and transferred to nitrocellulose membranes. Parallel blots of HeLa whole cell extracts (WCE) and in vitro translated hUBF (hUBF) were probed with various ^32P labeled DNA fragments (southwestern analysis, panels A-C of FIG. 2) or antiserum against hUBF (Anti-NOR-90) (panel D of FIG. 2). For southwestern analysis, the air dried membranes were processed as reported in Toney et al. (1989), 86 Proc. Natl. Acad. Sci. U.S.A. 8328-8332. […]

Molecules are shown by their SMILES. Where two headings read alike, the source gives them in different places.

`O=C(NCCCc1ccc(N(CCCl)CCCl)cc1)OCCNCCCCCCn1c(-c2ccc(O)cc2)cc2cc(O)ccc21` [2-phenylindole-C6NC2-mustard]: the “affinity of DNA lesions formed by the compound for ER” value at estrogen receptor (ER) [1] is “compete effectively”. Moreover, the “ED50 in MCF-7 relative to ED50 in MDA-MB-231” value in series [2] is listed as “two- to three-fold lower”. Further, the “differential in toxicity between HeLa 36 and HeLa 7” value in series [3] (4 hr. exposure, 2.5 μM dose) is on record as “approximately a two-fold differential”. For the same compound, the “cytotoxicity in HeLa 36 cells relative to HeLa 7 cells” value in series [3] (4 hr. exposure, 5 μM dose) was “four- to five-fold greater cytotoxicity”. For the same compound, in series [3] (4 day exposure), the “effect in HeLa 36 cells relative to HeLa 7 cells” value is “selectively toxic and growth inhibitory effect”. Moreover, the “affinity for the ER relative to estradiol (E2)” value at estrogen receptor (ER) [4] (calf uterine cytosol) was no more than 20 fold. Also, on estrogen receptor (ER) [4] (competition with [3H]E2), the “affinity for the ER (in words)” value is on record as “highest affinity”.
As for `O=C(O)CCCc1ccc(N(CCCl)CCCl)cc1` [chlorambucil, reference compound], the “affinity of DNA lesions formed by the compound for ER” value at estrogen receptor (ER) [1] (isolated DNA lesioned with compound, competition with E2) is “no affinity”.
Regarding `N.N.[Cl][Pt][Cl]` [cisplatin, cis-diamminedichloro-platinum(II)], the “binding of in vitro translated hUBF to drug-modified DNA” value at hUBF is given as “bound”.
In the case of `N.N.[Cl][Pt][Cl]` [trans-DDP, trans-Diamminedichloroplatinum (II)], the “binding of in vitro translated hUBF to drug-modified DNA” value at hUBF is “failed to recognize”.
